{"source": "patent US5328913A", "about": "“Minoxidil analogs as inhibitors of cell proliferation and lysyl hydroxylase” (priority 1992, dated 1994)", "key": {"[1]": {"tested_on": "lysyl hydroxylase", "assay": "Lysyl hydroxylase activity in fibroblasts treated with minoxidil and its hydroxy derivatives (Example 3)", "type": "cell-based, human", "conditions": "for Fibroblast Lysyl Hydroxylase Activity: 48 hr", "experimental": "(§1) Culture of human skin fibroblasts derived from an apparently normal adult were grown to confluent densities in Dulbecco's modified Eagle's medium supplemented with 10% (v/v) fetal calf serum. Thereafter, the medium was replaced with medium supplemented with 0.5% dialyzed fetal calf serum. […] In some experiments, minoxodil was dissolved in 95% (v/v) ethanol; the final concentration of minoxidil was 0.3 mM and that of ethanol was 0.3%. Cultures treated with ethanol only served as the control.\n(§2) During the last 3 hr of treatment, cultures received 100 μM ascorbic acid. The enzyme activities in extracts of treated cells were measured by tritium-release assays described previously (Murad and Pinnell, J. Biol. Chem. 262:11,973 (1987))."}, "[2]": {"tested_on": "non-proliferating fibroblasts", "assay": "Cytotoxicity to non-proliferating fibroblasts (cell number per dish)", "type": "cell-based", "conditions": "5 mM, 72 hr", "excerpt": "Certain aspects of the present invention are described in greater detail in the non-limiting Examples that follow. (See also Murad et al, Arch. Biochem. Biophys. 292:234 (1992))."}, "[3]": {"tested_on": "Lysyl Hydroxylations in Human Skin Fibroblasts", "assay": "Hydroxylation of lysine residues in type I procollagen (Hyl/Lys)", "type": "cell-based", "conditions": "1 mM; for Hyl/Lys: 72 hr; for activity at 1000 µM: Homo sapiens, Skin fibroblast, 72 hr (Table V), read-out: ratio of hydroxylysine to lysine, percentage of control value", "experimental": "(§3) Culture of human skin fibroblasts derived from an apparently normal adult were grown to confluent densities in Dulbecco's modified Eagle's medium supplemented with 10% (v/v) fetal calf serum. Thereafter, the medium was replaced with medium supplemented with 0.5% dialyzed fetal calf serum. The cultures were treated for 72 hr with 1 mM minoxidil, 3'- hydroxyminoxidil,or 4'-hydroxyminoxidil (Upjohn) dissolved in aqueous medium. In some experiments, minoxodil was dissolved in 95% (v/v) ethanol; […]. Cultures treated with ethanol only served as the control.\n(§4) During the last 6 hr of treatment, cultures were labeled with 50 μCi of L-[2,3-^3 H]proline (35 Ci/mmol) and 50 μCi of L[U-^14 C]lysine ([…]) in 4 ml of lysine-free medium supplemented with 100 μM ascorbic acid. At the end of the incubation period, the medium was removed and mixed with 1 mM each of EDTA, N-ethylmaleimide, and phenylmethylsulfonylfluoride, and the collagenous proteins were precipitated with 30% (NH4)2 SO4. The cell layer was scraped and extracted with 0.5 M acetic acid containing the protease inhibitors as above. The cell extract was neutralized, and the collagenous proteins were precipitated as above. The (NH4)2 SO4 precipitate from the medium and cell layer was separately dissolved in 0.1% SDS/10 mM Tris-HCl (pH 6.8), reduced with dithiothreitol, and analyzed by electrophoresis on 4% SDS-polyacrylamide gels. The bands corresponding to the proαl(I) and proα2(I) chains from the two fractions were pooled and hydrolyzed with 6 M HCl for 24 hr at 110° C. Proline, hydroxyproline, lysine, and hydroxylysine in the hydrolysate were separated by HPLC (Takimitsa et al, J. Dermatol. 16:37 (1989)), and their radioactivity was determined in a Beckman liquid scintillation counter. To isolate type I procollagen the precipitate from the medium and cell layer was separately dissolved in 25 mM Tris-HCl, pH 7.5, containing 2 M urea and 1 mM each of EDTA, N-ethylmaleimide, and phenylmethylsulfonylfluoride, then chromatographed on a DEAE-cellulose column (Freiberger et al, J. Invest. Dermatol. 75:425 (1980)). The procollagen isolated from the two fractions was pooled, hydrolyzed, and analyzed as above."}, "[4]": {"tested_on": "prolyl hydroxylase", "assay": "Prolyl hydroxylase activity in fibroblasts treated with minoxidil and its hydroxy derivatives (Example 3)", "type": "cell-based, human", "conditions": "for prolyl hydroxylase activity (in words) / Prolyl Hydroxylase Activity: 1 mM; for prolyl hydroxylase activity (in words): 72 hr", "experimental": "Culture of human skin fibroblasts derived from an apparently normal adult were grown to confluent densities in Dulbecco's modified Eagle's medium supplemented with 10% (v/v) fetal calf serum. Thereafter, the medium was replaced with medium supplemented with 0.5% dialyzed fetal calf serum. The cultures were treated for 72 hr with 1 mM minoxidil, 3'- hydroxyminoxidil,or 4'-hydroxyminoxidil (Upjohn) dissolved in aqueous medium. In some experiments, minoxodil was dissolved in 95% (v/v) ethanol; the final concentration of minoxidil was 0.3 mM and that of ethanol was 0.3%. Cultures treated with ethanol only served as the control.\nas §2"}, "[5]": {"conditions": "in vivo; cited from earlier work"}, "[6]": {"tested_on": "Collagen Synthesis in Human Skin Fibroblasts", "assay": "Collagen synthesis in human skin fibroblasts", "type": "cell-based", "conditions": "1 mM, 72 hr; mean ± SD of duplicate analysis of two cultures (Table VII)", "experimental": "as §3\nDuring the last 6 hr of treatment, cultures were labeled with 20 μCi of L-[2,3-^3 H]proline in 1 ml of medium supplemented with 100 μM ascorbic acid. The amount of proline radioactivity incorporated into collagen in the medium and cells combined was measured after digestion with a bacterial collagenase, essentially as described previously (Freiberger et al, J. Invest. Dermatol. 75:425 (1980))."}, "[7]": {"tested_on": "human skin fibroblasts", "assay": "Fibroblast proliferation", "type": "cell-based", "conditions": "relative to minoxidil", "experimental": "Cultures were seeded at a density of 100,000 cells per 35 mm-dish and allowed to attach and proliferate in the presence of 20% calf serum. Drug-treated cultures received 1 mM minoxidil or its hydroxy derivative on day 1 after seeding."}, "[8]": {"tested_on": "Prolyl Hydroxylations in Human Skin Fibroblasts", "assay": "Hydroxylation of proline residues in type I procollagen (Hyp/Pro)", "type": "cell-based", "conditions": "1 mM; for Hyp/Pro: 72 hr; for activity at 1000 µM: Homo sapiens, Skin fibroblast, 72 hr (Table V), read-out: ratio of hydroxyproline to proline, % control value", "experimental": "as §1, with “[…].” for “the final concentration of minoxidil was 0.3 mM and that of ethanol was 0.3%.”\nas §4"}, "[9]": {"conditions": "1 mM, 72 hr (description table)"}, "[10]": {"conditions": "type I procollagen chains isolated by gel electrophoresis, mean ± range of two experiments (description table)"}}, "note": "“Also recorded” adds a separate entry of the source."}
{"smiles": "Nc1cc(N2CCC(O)CC2)nc(N)[n+]1[O-]", "note": "[4'-Hydroxyminoxidil]", "values": [{"measurement": "suppression of lysyl hydroxylase (in words)", "setting": "[1]", "result": "inhibitory potential comparable to that of minoxidil; also recorded: as active as minoxidil in suppressing fibroblast proliferation and lysyl hydroxylase activity"}, {"measurement": "Fibroblast Lysyl Hydroxylase Activity", "setting": "[1]; 1 mM", "result": 415, "unit": "cpm^3 H2 O/mg protein"}, {"measurement": "Lysyl Hydroxylase Activity", "setting": "[1]; 1 mM, 72 hr (Table VI)", "result": 239, "unit": "cpm ^3 H2 O/mg protein"}, {"measurement": "Lysyl Hydroxylase Activity", "setting": "[1]; [9]", "result": 293, "unit": "cpm^3 H2 O/mg protein"}, {"measurement": "Fibroblast Lysyl Hydroxylase Activity", "setting": "[1]; 5 mM", "result": 494, "unit": "cpm^3 H2 O/mg protein"}, {"measurement": "10^-6 × No. of Cells/Dish", "setting": "[2]", "result": "1.42 10^-6 × No. of Cells/Dish"}, {"measurement": "Hyl/Lys", "setting": "[3]; gel electrophoresis (Table V)", "result": "0.09 ± 0.01"}, {"measurement": "Hyl/Lys", "setting": "[3]; [10]", "result": "0.09 ± 0.01"}, {"measurement": "activity at 1000 µM", "setting": "[3]", "result": 41, "unit": "%"}, {"measurement": "effect on prolyl hydroxylase (in words)", "setting": "[4]", "result": "without affecting prolyl hydroxylase"}, {"measurement": "prolyl hydroxylase activity (in words)", "setting": "[4]", "result": "remained unchanged"}, {"measurement": "Prolyl Hydroxylase Activity", "setting": "[4]; 72 hr (Table VI)", "result": 33500, "unit": "cpm ^3 H2 O/mg protein"}, {"measurement": "Prolyl Hydroxylase Activity", "setting": "[4]; 72 hr (description table)", "result": 33500, "unit": "cpm^3 H2 O/mg protein"}, {"measurement": "antihypertensive / hypotensive activity (in words)", "setting": "[5]", "result": "Neither metabolite exhibits the marked hypotensive activity associated with minoxidil; also recorded: inactive as antihypertensive agents"}, {"measurement": "% Collagen Synthesized", "setting": "[6]", "result": "8.2 ± 0.6", "unit": "%"}, {"measurement": "suppression of fibroblast proliferation (in words)", "setting": "[7]", "result": "as active as minoxidil in suppressing fibroblast proliferation"}, {"measurement": "Hyp/Pro", "setting": "[8]; gel electrophoresis (Table V)", "result": "1.12 ± 0.07"}, {"measurement": "Hyp/Pro", "setting": "[8]; [10]", "result": "1.12 ± 0.07"}, {"measurement": "activity at 1000 µM", "setting": "[8]", "result": 122, "unit": "%"}]}
{"smiles": "Nc1cc(N2CCCC(O)C2)nc(N)[n+]1[O-]", "note": "(stereo not drawn) [3'-Hydroxyminoxidil]", "values": [{"measurement": "suppression of lysyl hydroxylase (in words)", "setting": "[1]", "result": "inhibitory potential comparable to that of minoxidil; also recorded: as active as minoxidil in suppressing fibroblast proliferation and lysyl hydroxylase activity"}, {"measurement": "Fibroblast Lysyl Hydroxylase Activity", "setting": "[1]; 1 mM", "result": 401, "unit": "cpm^3 H2 O/mg protein"}, {"measurement": "Lysyl hydroxylase activity, % of control level", "setting": "[1]; 1 mM, 72 hr", "result": 22, "unit": "%"}, {"measurement": "Lysyl Hydroxylase Activity", "setting": "[1]; 1 mM, 72 hr (Table VI)", "result": 263, "unit": "cpm ^3 H2 O/mg protein"}, {"measurement": "Lysyl Hydroxylase Activity", "setting": "[1]; [9]", "result": 263, "unit": "cpm^3 H2 O/mg protein"}, {"measurement": "Fibroblast Lysyl Hydroxylase Activity", "setting": "[1]; 5 mM", "result": 383, "unit": "cpm^3 H2 O/mg protein"}, {"measurement": "10^-6 × No. of Cells/Dish", "setting": "[2]", "result": "1.39 10^-6 × No. of Cells/Dish"}, {"measurement": "Hyl/Lys", "setting": "[3]; gel electrophoresis (Table V)", "result": "0.07 ± 0.01"}, {"measurement": "Hyl/Lys", "setting": "[3]; [10]", "result": "0.07 ± 0.01"}, {"measurement": "activity at 1000 µM", "setting": "[3]", "result": 32, "unit": "%"}, {"measurement": "effect on prolyl hydroxylase (in words)", "setting": "[4]", "result": "without affecting prolyl hydroxylase"}, {"measurement": "prolyl hydroxylase activity (in words)", "setting": "[4]", "result": "remained unchanged"}, {"measurement": "Prolyl Hydroxylase Activity", "setting": "[4]; 72 hr (Table VI)", "result": 30512, "unit": "cpm ^3 H2 O/mg protein"}, {"measurement": "Prolyl Hydroxylase Activity", "setting": "[4]; 72 hr (description table)", "result": 30512, "unit": "cpm^3 H2 O/mg protein"}, {"measurement": "antihypertensive / hypotensive activity (in words)", "setting": "[5]", "result": "Neither metabolite exhibits the marked hypotensive activity associated with minoxidil; also recorded: inactive as antihypertensive agents"}, {"measurement": "% Collagen Synthesized", "setting": "[6]", "result": "9.0 ± 0.9", "unit": "%"}, {"measurement": "suppression of fibroblast proliferation (in words)", "setting": "[7]", "result": "as active as minoxidil in suppressing fibroblast proliferation"}, {"measurement": "Hyp/Pro", "setting": "[8]; gel electrophoresis (Table V)", "result": "0.95 ± 0.02"}, {"measurement": "Hyp/Pro", "setting": "[8]; [10]", "result": "0.95 ± 0.02"}, {"measurement": "activity at 1000 µM", "setting": "[8]", "result": 103, "unit": "%"}]}
